Read-outs that look alike come from different tables or passages of the source.
Tests used:
[1] = tested on: MDA-MB-231; assay: MTT cell viability after iridium complex treatment, with or without light (photodynamic cancer cell killing); format: cell-based
Procedure: (§1) After seeding 1.5×10^4 cells in a 96-well plate, the cells were cultured overnight at 37° C. under 5% carbon dioxide conditions. Afterwards, the cells were treated with the iridium complex and cultured for 2 hours, after which the medium was replaced with fresh medium. After irradiated for 30 seconds with a 1 sun simulator (100 mW/cm2, PEG-L01, Peccell), cells were cultured for an additional 24 hours in a humidified incubator containing 5% carbon dioxide at 37° C. Cell viability was measured using the MTT (tetrazolium salt (3-(4,5-dimethylthiazol-2-yl)-2,5-diphenyltetrazolium bromide)) assay. MTT reagent was added to each well and cultured for 4 hours, and then the formazan crystals produced in the surviving cells were dissolved in DMSO, followed by measurement of the absorbance at 570 nm.
(§2) When the same light (1 sun, 3 J/cm^2) was irradiated to cancer cells administered with the HBrb, B2, and TIr3 iridium complexes as respective photosensitizers, the IC50 values for the respective photo sensitizers were first calculated, and the results are shown in Table 2 below.
(§3) Data indicating the inherent toxicity may be determined by cell viability under conditions without light application (hv−). The experimental results in FIGS. 6A-6F show the cell viability for each cell under conditions where no light was given, where M indicates the cell line MDA-MB-231, A indicates the cell line A549, H indicates the cell line HeLa, C indicates the cell line Caco-2, and P indicates the cell line PANC-1, respectively. FIGS. 6A, 6B, and 6C represent the cell viability when each substance was administered to each cell line for 2 hours, replaced with new media, and then cultured for an additional 24 hours. FIG. 6D is a graph of cell viability when TIr3 and B2 were administered at different concentrations, and at the concentration of a combination of the two (TIr3+B2), to PANC-1, pancreatic cancer cells. […] FIGS. 6E and 6F show the results of identifying the change in the cell viability in the MDA-MB-231 breast cancer cell line under conditions with TIr3 only and the TIr3+B2 combination depending on the presence of light irradiation.

[2] = tested on: Caco-2; assay: as above; format: cell-based
Procedure: as §1, §2, §3

[3] = tested on: A549; assay: as above; format: cell-based
Procedure: as §1, §2, §3

[4] = tested on: PANC-1; assay: as above; format: cell-based; settings: for cell viability (hv−): FIG. 6D, especially 16 and 32 μM
Procedure: as §1, §2, §3

[5] = tested on: HeLa; assay: as above; format: cell-based; settings: for IC50: HeLa
Procedure: as §1, §2, §3

[6] = Dynamic light scattering of Kolliphor HS15 micelles; format: physicochemical; settings: 1 mg/mL in distilled water using 5% Kolliphor HS15
Procedure: FIGS. 7A-7E illustrates schematic diagrams of micellized synergistic combination (SY) of TIr3 and B2 using Kolliphor HS 15 surfactant (FIG. 7A). As a result, when TIr3, B2, and 0.5 mg/ml TIr3+0.5 mg/ml B2 (SY) materials are dissolved in distilled water at a concentration of 1 mg/mL using 5% Kolliphor HS15, it was found via dynamic light scattering (DLS) that nanoparticles with a size of approximately 10 nm were formed (FIG. 7B). In addition, the size of the SY combination was reidentified through transmission electron microscopy (TEM) (FIG. 7C). […] After four administrations of the drug, the results of hepatotoxicity (alanine aminotransferase, ALT) on the 17th day are shown in FIG. 7E.

[7] = tested on: MKN45; assay: MTT cell viability after iridium complex treatment, with or without light (photodynamic cancer cell killing); format: cell-based
Procedure: as §1, §2

[8] = light 1 sun, 3 J/cm^2, read-out: IC50 (hv+)
[9] = no light, read-out: IC50 (hv−), IC50, dark
[10] = light 1 sun, 3 J/cm^2 (100 mW/cm2, 30 s), 2 h treatment, 24 h culture, read-out: IC50 (hv+)

| Structure (SMILES) | IC50 [1, 8] | IC50 [1, 9] | IC50 [2, 8] | IC50 [2, 9] | IC50 [3, 10] | IC50 [3, 9] | IC50 [4, 10] | cell viability (hv−) ([4]; no light) | IC50 [4, 9] | IC50 [5, 10] | IC50 [5, 9] | inherent toxicity of photosensitizer ([5]; up to 32 μM, no light) | nanoparticle size (DLS) [6] | IC50 [7, 8] | IC50 [7, 9] |
| --- | --- | --- | --- | --- | --- | --- | --- | --- | --- | --- | --- | --- | --- | --- | --- |
| Cc1cc(-c2sc3ccccc3[c]2[Ir]([O]C(=O)c2ncccc2OCCCN2CCOCC2)[c]2c(-c3cc(C)c4ccccc4n3)sc3ccccc23)nc2ccccc12 [Example B2] | 0.89 ± 0.1 µM | > 32 µM | 0.68 ± 0.01 µM | > 32 µM | 3.8 ± 1.3 µM | > 32 µM | 11.7 ± 2.02 µM | excellent biocompatibility | > 32 µM | 2.4 ± 0.08 µM | > 32 µM | non-toxic | approximately 10 nm | 0.86 ± 0.03 µM | > 32 µM |
| CC(=O)C=C(C)[O][Ir]([c]1c(-c2cc(C(F)(F)F)c3ccccc3n2)sc2ccccc12)[c]1c(-c2cc(C(F)(F)F)c3ccccc3n2)sc2ccccc12 [FIra] |  |  |  |  | > 32 µM |  | > 32 µM |  |  | > 32 µM |  |  |  |  |  |
| O=C([O][Ir]([c]1c(-c2cc(C(F)(F)F)c3ccccc3n2)sc2ccccc12)[c]1c(-c2cc(C(F)(F)F)c3ccccc3n2)sc2ccccc12)c1ncccc1O [FIrp] |  |  |  |  | > 32 µM |  | > 32 µM |  |  | > 32 µM |  |  |  |  |  |
| CC(=O)C=C(C)[O][Ir]([c]1c(-c2cc(C)c3ccccc3n2)sc2ccccc12)[c]1c(-c2cc(C)c3ccccc3n2)sc2ccccc12 [HIra] |  |  |  |  | > 32 µM |  | > 32 µM |  |  | > 32 µM |  |  |  |  |  |
| [Cl-].c1ccc(-c2ccc3ccccc3n2)[c]([Ir+][c]2ccccc2-c2ccc3ccccc3n2)c1.c1ccc(-c2ccccn2)nc1 [TIr3] | 0.89 ± 0.02 µM | 7.51 ± 0.84 µM | 0.89 ± 0.09 µM | 7.88 ± 0.13 µM | 3.12 ± 0.2 µM | 19.8 ± 1.99 µM | 3.86 ± 0.18 µM | low cell viability | 10.7 ± 0.39 µM | 1.53 ± 0.07 µM | 8.77 ± 0.73 µM |  | approximately 10 nm | 0.55 ± 0.06 µM | 16.3 ± 0.17 µM |

Source: patent US20260233024A1, “IRIDIUM COMPLEX, PHOTOSENSITIZER, AND COMPOSITION FOR PHOTODYNAMIC THERAPY” (UNIST(ULSAN NATIONAL INSTITUTE OF SCIENCE AND TECHNOLOGY), priority 2022, published 2026)
